Earlier results, collected in publication PMC10368966, “Safety and efficacy of AK0529 in respiratory syncytial virus‐infected infant patients: A phase 2 proof‐of‐concept trial” (Influenza and Other Respiratory Viruses, 2023).

How the values were obtained:
[1] = system: SARS-CoV-2; parameters: method as in PMID 32423584; details: patients with severe COVID-19 ref 18; cited from earlier work
[2] = system: SARS-CoV-2; parameters: method as in PMID 32423584; details: cell cultures ref 18; cited from earlier work
[3] = system: RSV; parameters: method as in PMID 32201897; details: cited from earlier work

Row | Structure (SMILES) | effect on viral load [1] | time to clinical improvement [1] | inhibition of SARS-CoV-2 virus replication [2] | length of hospital stay or time to clinical stability [3] | reduction in RSV viral load vs placebo [3]
1 | CCC(CC)COC(=O)[C@H](C)N[P@](=O)(OC[C@H]1O[C@@](C#N)(c2ccc3c(N)ncnn23)[C@H](O)[C@@H]1O)Oc1ccccc1 [Remdesivir] | no effect | numerically shorter | potent inhibitor | – | –
2 | CS(=O)(=O)CCCn1c(Cn2c(=O)n(CC(F)(F)F)c3ccncc32)cc2cc(Cl)ccc21 [JNJ‐8678] | – | – | – | no improvements | greater reduction in RSV viral load than with placebo
